Source: US10441663B2, “Methods for treating cancer” (Bicycle Therapeutics Limited, priority 2016, dated 2019)
*1 amine or outer side, *2 acyl side, *3 side chain or, on linkers, in order; H or OH if unused. Where a SMILES comes first, the peptide text is derived from it. Bridges are numbered along the chain shown (N, C = ends). [ ]: non-standard residue; d: D form. The star is where a group is joined. X1 = COc1cc2cc(c1Cl)N(C)C(=O)C[C@H](OC(=O)[C@H](C)N(C)C(=O)CCSSC(C)CCC(=O)*)[C@]1(C)O[C@H]1[C@H](C)[C@@H]1C[C@@](O)(NC(=O)O1)[C@H](OC)/C=C/C=C(\C)C2; 1Nal = N[C@@H](Cc1cccc2ccccc12)C(=O)O; TBMB = c1c(C[*:1])cc(C[*:3])cc1C[*:2]; Tle = CC(C)(C)[C@H](N)C(=O)O; βAla = NCCC(=O)O; Sar = CNCC(=O)O

System: HCT-15 xenograft
Experiment: In vivo efficacy of BT1718 in HCT-15 xenograft
Set-up: species or system Mus Musculus
Method: The objective of this study was to evaluate the in vivo anti-tumor efficacy of BT1718in treatment of HT1080, NCI-H292, NCI-H1975, MDA-MB-231, HCC1806, RPMI2650, HCT-15, HT-29 and SNU-16 xenograft in BALB/c nude mice.
The HT1080, NCI-H292, NCI-H1975, MDA-MB-231, HCC1806, RPMI2650, HCT-15, HT-29 and SNU-16 tumor cells were maintained in vitro as a monolayer culture in medium supplemented with 10% heat inactivated fetal bovine serum at 37° C. in an […]. The tumor cells will be routinely subcultured twice weekly by trypsin-EDTA treatment. The cells growing in an exponential growth phase will be harvested and counted for tumor inoculation.
Mouse was inoculated subcutaneously at the right flank with tumor cells for tumor development. The animals were randomized and treatment was started when the average tumor reaches certain volume for the efficacy study, the inoculating cell amounts and starting tumor size were shown as below in Table 9. The test article administration and the animal numbers in each group were shown in the experimental design in Table 10.
All the procedures related to animal handling, care and the treatment in the study were performed according to the guidelines of the Association for Assessment and Accreditation of Laboratory Animal Care (AAALAC). At the time of routine monitoring, the animals were daily checked for any effects of tumor growth and treatments on normal behavior such as mobility, food and water consumption (by looking only), body weight gain/loss (body weights were measured every day), eye/hair matting and any other abnormal effect as stated in the protocol. Death and observed clinical signs were recorded on the basis of the numbers of animals within each subset.
The major endpoint was to see if the tumor growth could be delayed or mice could be cured. Tumor size was measured three times weekly in two dimensions using a caliper, and the volume was expressed in mm^3 using the formula: V=0.5 a×b^2 where a and b are the long and short diameters of the tumor, respectively. The tumor size was then used for calculations of T/C value. The T/C value (in percent) is an indication of antitumor effectiveness; T and C are the mean volumes of the treated and control groups, respectively, on a given day.
TGI was calculated for each group using the formula: TGI (%)=[1−(Ti−T0)/(Vi−V0)]×100; Ti is the average tumor volume of a treatment group on a given day, T0 is the average tumor volume of the treatment group on the day of treatment start, Vi is the average tumor volume of the vehicle control group on the same day with Ti, and V0 is the average tumor volume of the vehicle group on the day of treatment start.
Summary statistics, including mean and the standard error of the mean (SEM), are provided for the tumor volume of each group at each time point.
Statistical analysis of difference in tumor volume among the groups was conducted on the data obtained at the best therapeutic time point after the final dose.
A one-way ANOVA was performed to compare tumor volume among groups, and when a significant F-statistics (a ratio of treatment variance to the error variance) was obtained, comparisons between groups were carried out with Games-Howell test. All data were analyzed using Prism. P<0.05 was considered to be statistically significant.

COc1cc2cc(c1Cl)N(C)C(=O)C[C@H](OC(=O)[C@H](C)N(C)C(=O)CCSSC(C)CCC(=O)NCCC(=O)N(C)CC(=O)N(C)CC(=O)N(C)CC(=O)N(C)CC(=O)N(C)CC(=O)N(C)CC(=O)N(C)CC(=O)N(C)CC(=O)N(C)CC(=O)N(C)CC(=O)N[C@@H](C)C(=O)N[C@H]1CSCc3cc4cc(c3)CSC[C@H](NC(=O)[C@@H](C)NC(=O)[C@H](Cc3cccc5ccccc35)NC(=O)[C@H](CCC(=O)O)NC(=O)[C@H](CC(N)=O)NC(=O)[C@@H](C)NC1=O)C(=O)N[C@@H](CCC(=O)O)C(=O)N[C@@H](CC(=O)O)C(=O)N[C@@H](Cc1ccccc1)C(=O)N[C@@H](Cc1ccc(O)cc1)C(=O)N[C@@H](CC(=O)O)C(=O)N[C@@H](C(C)(C)C)C(=O)N[C@H](C(N)=O)CSC4)[C@]1(C)O[C@H]1[C@H](C)[C@@H]1C[C@@](O)(NC(=O)O1)[C@H](OC)/C=C/C=C(\C)C2 (stereo partly drawn) [BT1718] ({X1-βAla}-[Sar][Sar][Sar][Sar][Sar][Sar][Sar][Sar][Sar][Sar]AC[dA]NE[1Nal][dA]CEDFYD[Tle]C-NH2; linker 12-18-25 via TBMB (inferred))
Body Weight (1 mpk biw, day 0): 22.2 ± 0.5 g
Tumor Volume (1 mpk biw, day 0): 157 ± 6 mm^3
Body Weight (1 mpk biw, day 2): 21.8 ± 0.3 g
Tumor Volume (1 mpk biw, day 2): 174 ± 9 mm^3
Body Weight (1 mpk biw, day 4): 21.6 ± 0.6 g
Tumor Volume (1 mpk biw, day 4): 207 ± 14 mm^3
Body Weight (1 mpk biw, day 7): 22.3 ± 0.5 g
Tumor Volume (1 mpk biw, day 7): 385 ± 19 mm^3
Body Weight (1 mpk biw, day 9): 21.9 ± 0.3 g
Tumor Volume (1 mpk biw, day 9): 585 ± 26 mm^3
Body Weight (1 mpk biw, day 11): 21.9 ± 0.5 g
Tumor Volume (1 mpk biw, day 11): 937 ± 70 mm^3
Body Weight (1 mpk biw, day 14): 22.1 ± 0.5 g
Tumor Volume (1 mpk biw, day 14): 1238 ± 36 mm^3
Body Weight (3 mpk biw, day 0): 21.6 ± 0.5 g
Tumor Volume (3 mpk biw, day 0): 157 ± 6 mm^3
Body Weight (3 mpk biw, day 2): 21.4 ± 0.2 g
Tumor Volume (3 mpk biw, day 2): 140 ± 7 mm^3
Body Weight (3 mpk biw, day 4): 21.6 ± 0.2 g
Tumor Volume (3 mpk biw, day 4): 195 ± 26 mm^3
Body Weight (3 mpk biw, day 7): 22.7 ± 0.4 g
Tumor Volume (3 mpk biw, day 7): 389 ± 47 mm^3
Body Weight (3 mpk biw, day 9): 22.2 ± 0.4 g
Tumor Volume (3 mpk biw, day 9): 581 ± 54 mm^3
Body Weight (3 mpk biw, day 11): 22.2 ± 0.5 g
Tumor Volume (3 mpk biw, day 11): 901 ± 79 mm^3
Body Weight (3 mpk biw, day 14): 22.3 ± 0.6 g
Tumor Volume (3 mpk biw, day 14): 1180 ± 143 mm^3
Body Weight (10 mpk biw, day 0): 22.2 ± 0.3 g
Tumor Volume (10 mpk biw, day 0): 157 ± 11 mm^3
Body Weight (10 mpk biw, day 2): 21.2 ± 0.2 g
Tumor Volume (10 mpk biw, day 2): 130 ± 7 mm^3
Body Weight (10 mpk biw, day 4): 20.2 ± 0.5 g
Tumor Volume (10 mpk biw, day 4): 138 ± 14 mm^3
Body Weight (10 mpk biw, day 7): 21.7 ± 0.3 g
Tumor Volume (10 mpk biw, day 7): 265 ± 16 mm^3
Body Weight (10 mpk biw, day 9): 19.9 ± 0.3 g
Tumor Volume (10 mpk biw, day 9): 342 ± 47 mm^3
Body Weight (10 mpk biw, day 11): 20.3 ± 0.7 g
Tumor Volume (10 mpk biw, day 11): 562 ± 73 mm^3
Body Weight (10 mpk biw, day 14): 20.8 ± 0.8 g
Tumor Volume (10 mpk biw, day 14): 880 ± 89 mm^3
Best response at 10 mg/kg (HCT-15, 10 mg/kg): Growth delay
TGI (HCT-15, 1 mpk, biw, day 14): −0.9%
Tumor Volume (HCT-15, 1 mpk, biw, day 14): 1238 ± 36 mm^3
TGI (HCT-15, 3 mpk, biw, day 14): 4.6%
Tumor Volume (HCT-15, 3 mpk, biw, day 14): 1180 ± 143 mm^3
TGI (HCT-15, 10 mpk, biw, day 14): 32.5%
Tumor Volume (HCT-15, 10 mpk, biw, day 14): 880 ± 89 mm^3
Minimally Effective Dose IV BIW (HCT-15, dose leading to tumor-stasis): >10 mg/kg
anti-tumor activity (mouse, in vivo): did not show obvious anti-tumor activity
